From ChEMBL document CHEMBL1148480, “Structure-activity studies of orexin a and orexin B at the human orexin 1 and orexin 2 receptors led to orexin 2 receptor selective and orexin 1 receptor preferring ligands” (J Med Chem, 2004)
pEC50: −log10 of the molar value. Residues, ends and D or L forms follow the SMILES beside them.

Target: T1, Orexin/Hypocretin receptor type 1 (Homo sapiens, UniProt O43613)
T1 sequence (O43613 whole entry): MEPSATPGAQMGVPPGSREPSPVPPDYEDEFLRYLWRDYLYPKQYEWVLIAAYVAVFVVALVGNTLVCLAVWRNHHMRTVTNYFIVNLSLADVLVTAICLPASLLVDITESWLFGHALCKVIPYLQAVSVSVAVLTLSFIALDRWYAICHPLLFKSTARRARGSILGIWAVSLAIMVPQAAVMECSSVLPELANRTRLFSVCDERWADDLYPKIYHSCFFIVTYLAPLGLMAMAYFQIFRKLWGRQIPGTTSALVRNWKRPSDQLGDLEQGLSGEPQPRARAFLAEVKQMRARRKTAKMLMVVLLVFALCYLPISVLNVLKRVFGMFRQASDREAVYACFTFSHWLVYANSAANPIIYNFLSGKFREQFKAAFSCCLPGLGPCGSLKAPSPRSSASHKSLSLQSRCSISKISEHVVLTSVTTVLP
Assay: Effective agonist concentration to human orexin receptor type 1 determined using the Xlfit program
Format: functional

Compound	pEC50
CC[C@H](C)[C@H](NC(=O)CNC(=O)[C@H](C)NC(=O)[C@H](C)NC(=O)[C@H](Cc1cnc[nH]1)NC(=O)[C@H](CC(N)=O)NC(=O)CNC(=O)[C@H](C)NC(=O)CNC(=O)[C@H](Cc1cnc[nH]1)NC(=O)[C@H](CC(C)C)NC(=O)[C@H](CC(C)C)NC(=O)[C@H](CCC(=O)O)NC(=O)[C@H](Cc1ccc(O)cc1)NC(=O)[C@H](CC(C)C)NC(=O)[C@H](CCCNC(=N)N)NC(=O)[C@H](CS)NC(=O)[C@H](CO)NC(=O)[C@H](CS)NC(=O)[C@@H](NC(=O)[C@H](CCCCN)NC(=O)[C@H](CCC(N)=O)NC(=O)[C@H](CCCNC(=N)N)NC(=O)[C@H](CS)NC(=O)[C@H](CS)NC(=O)[C@H](CC(=O)O)NC(=O)[C@@H]1CCCN1C(=O)[C@H](CC(C)C)NC(=O)[C@@H]1CCCN1C(=O)[C@@H]1CCC(=O)N1)[C@@H](C)O)C(=O)N[C@@H](CC(C)C)C(=O)N[C@H](C(=O)N[C@@H](CC(C)C)C(=O)O)[C@@H](C)O	6.80
CC[C@H](C)[C@H](NC(=O)CNC(=O)[C@H](C)NC(=O)[C@H](C)NC(=O)[C@H](Cc1c[nH]cn1)NC(=O)[C@H](CC(N)=O)NC(=O)CNC(=O)[C@H](C)NC(=O)CNC(=O)[C@H](Cc1c[nH]cn1)NC(=O)[C@H](CC(C)C)NC(=O)[C@H](CC(C)C)NC(=O)[C@H](CCC(=O)O)NC(=O)[C@H](Cc1ccc(O)cc1)NC(=O)[C@H](CC(C)C)NC(=O)[C@H](CCCN=C(N)N)NC(=O)[C@H](CS)NC(=O)[C@H](CO)NC(=O)[C@H](CS)NC(=O)[C@@H](NC(=O)[C@H](CCCCN)NC(=O)[C@H](CCC(N)=O)NC(=O)[C@H](CCCN=C(N)N)NC(=O)[C@H](CS)NC(=O)[C@@H](N)CS)[C@@H](C)O)C(=O)N[C@@H](CC(C)C)C(=O)N[C@H](C(=O)N[C@@H](CC(C)C)C(N)=O)[C@@H](C)O (H-CCRQKTCSCRLYELLHGAGNHAAGILTL-NH2)	6.09
CC[C@H](C)[C@H](NC(=O)CNC(=O)[C@H](C)NC(=O)[C@H](C)NC(=O)[C@H](Cc1c[nH]cn1)NC(=O)[C@H](CC(N)=O)NC(=O)CNC(=O)[C@H](CO)NC(=O)[C@H](C)NC(=O)[C@H](CCC(N)=O)NC(=O)[C@H](CC(C)C)NC(=O)[C@H](CC(C)C)NC(=O)[C@H](CCCN=C(N)N)NC(=O)[C@H](CCC(N)=O)NC(=O)[C@H](CC(C)C)NC(=O)[C@H](CCCN=C(N)N)NC(=O)CNC(=O)[C@H](CCC(N)=O)NC(=O)[C@H](C)NC(=O)CN)C(=O)N[C@@H](CC(C)C)C(=O)N[C@H](C(=O)N[C@@H](CCSC)C(N)=O)[C@@H](C)O (H-GAQGRLQRLLQASGNHAAGILTM-NH2)	5.13
CC[C@H](C)[C@H](NC(=O)CNC(=O)[C@H](C)NC(=O)[C@H](C)NC(=O)[C@H](Cc1cnc[nH]1)NC(=O)[C@H](CC(N)=O)NC(=O)CNC(=O)[C@H](CO)NC(=O)[C@H](C)NC(=O)[C@H](CCC(N)=O)NC(=O)[C@H](CC(C)C)NC(=O)[C@H](CC(C)C)NC(=O)[C@H](CCCNC(=N)N)NC(=O)[C@H](CCC(N)=O)NC(=O)[C@H](CC(C)C)NC(=O)[C@H](CCCNC(=N)N)NC(=O)CNC(=O)[C@H](C)NC(=O)[C@H](CC(C)C)NC(=O)CN)C(=O)N[C@@H](CC(C)C)C(=O)N[C@H](C(=O)N[C@@H](CCSC)C(N)=O)[C@@H](C)O (H-GLAGRLQRLLQASGNHAAGILTM-NH2)	5.79
CC[C@H](C)[C@H](NC(=O)CNC(=O)[C@H](C)NC(=O)[C@H](C)NC(=O)[C@H](Cc1c[nH]cn1)NC(=O)[C@H](CC(N)=O)NC(=O)CNC(=O)[C@H](CO)NC(=O)[C@H](C)NC(=O)[C@H](CCC(N)=O)NC(=O)[C@H](CC(C)C)NC(=O)[C@H](CC(C)C)NC(=O)[C@H](CCCN=C(N)N)NC(=O)[C@H](CCC(N)=O)NC(=O)[C@H](CC(C)C)NC(=O)[C@H](CCCN=C(N)N)NC(=O)CNC(=O)[C@@H]1CCCN1C(=O)[C@H](CC(C)C)NC(=O)CN)C(=O)N[C@@H](CC(C)C)C(=O)N[C@H](C(=O)N[C@@H](CCSC)C(N)=O)[C@@H](C)O (H-GLPGRLQRLLQASGNHAAGILTM-NH2)	5.92
CC[C@H](C)[C@H](NC(=O)CNC(=O)[C@H](C)NC(=O)[C@H](C)NC(=O)[C@H](Cc1c[nH]cn1)NC(=O)[C@H](CC(N)=O)NC(=O)CNC(=O)[C@H](CO)NC(=O)[C@H](C)NC(=O)[C@H](CCC(N)=O)NC(=O)[C@H](CC(C)C)NC(=O)[C@H](CC(C)C)NC(=O)[C@H](CCCN=C(N)N)NC(=O)[C@H](CCC(N)=O)NC(=O)[C@H](CC(C)C)NC(=O)[C@H](CCCN=C(N)N)NC(=O)[C@H](C)NC(=O)[C@H](CCC(N)=O)NC(=O)[C@H](CC(C)C)NC(=O)CN)C(=O)N[C@@H](CC(C)C)C(=O)N[C@H](C(=O)N[C@@H](CCSC)C(N)=O)[C@@H](C)O (H-GLQARLQRLLQASGNHAAGILTM-NH2)	5.64
CC[C@H](C)[C@H](NC(=O)CNC(=O)[C@H](C)NC(=O)[C@H](C)NC(=O)[C@H](Cc1c[nH]cn1)NC(=O)[C@H](CC(N)=O)NC(=O)CNC(=O)[C@H](CO)NC(=O)[C@H](C)NC(=O)[C@H](CCC(N)=O)NC(=O)[C@H](CC(C)C)NC(=O)[C@H](CC(C)C)NC(=O)[C@H](CCCN=C(N)N)NC(=O)[C@H](CCC(N)=O)NC(=O)[C@H](CC(C)C)NC(=O)[C@H](C)NC(=O)CNC(=O)[C@H](CCC(N)=O)NC(=O)[C@H](CC(C)C)NC(=O)CN)C(=O)N[C@@H](CC(C)C)C(=O)N[C@H](C(=O)N[C@@H](CCSC)C(=O)O)[C@@H](C)O (H-GLQGALQRLLQASGNHAAGILTM-OH)	5.16
CC[C@H](C)[C@H](NC(=O)CNC(=O)[C@H](C)NC(=O)[C@H](C)NC(=O)[C@H](Cc1c[nH]cn1)NC(=O)[C@H](CC(N)=O)NC(=O)CNC(=O)[C@H](CO)NC(=O)[C@H](C)NC(=O)[C@H](CCC(N)=O)NC(=O)[C@H](CC(C)C)NC(=O)[C@H](CC(C)C)NC(=O)[C@H](CCCNC(=N)N)NC(=O)[C@H](CCC(N)=O)NC(=O)[C@H](C)NC(=O)[C@H](CCCNC(=N)N)NC(=O)CNC(=O)[C@H](CCC(N)=O)NC(=O)[C@H](CC(C)C)NC(=O)CN)C(=O)N[C@@H](CC(C)C)C(=O)N[C@H](C(=O)N[C@@H](CCSC)C(=O)O)[C@@H](C)O (H-GLQGRAQRLLQASGNHAAGILTM-OH)	4.94
CC[C@H](C)[C@H](NC(=O)CNC(=O)[C@H](C)NC(=O)[C@H](C)NC(=O)[C@H](Cc1c[nH]cn1)NC(=O)[C@H](CC(N)=O)NC(=O)CNC(=O)[C@H](CO)NC(=O)[C@H](C)NC(=O)[C@H](CCC(N)=O)NC(=O)[C@H](CC(C)C)NC(=O)[C@H](CC(C)C)NC(=O)[C@H](CCCNC(=N)N)NC(=O)[C@H](C)NC(=O)[C@H](CC(C)C)NC(=O)[C@H](CCCNC(=N)N)NC(=O)CNC(=O)[C@H](CCC(N)=O)NC(=O)[C@H](CC(C)C)NC(=O)CN)C(=O)N[C@@H](CC(C)C)C(=O)N[C@H](C(=O)N[C@@H](CCSC)C(=O)O)[C@@H](C)O (H-GLQGRLARLLQASGNHAAGILTM-OH)	5.89
CC[C@H](C)[C@H](NC(=O)CNC(=O)[C@H](C)NC(=O)[C@H](C)NC(=O)[C@H](Cc1cnc[nH]1)NC(=O)[C@H](CC(N)=O)NC(=O)CNC(=O)[C@H](CO)NC(=O)[C@H](C)NC(=O)[C@H](CCC(N)=O)NC(=O)[C@H](CC(C)C)NC(=O)[C@H](CC(C)C)NC(=O)[C@H](C)NC(=O)[C@H](CCC(N)=O)NC(=O)[C@H](CC(C)C)NC(=O)[C@H](CCCNC(=N)N)NC(=O)CNC(=O)[C@H](CCC(N)=O)NC(=O)[C@H](CC(C)C)NC(=O)CN)C(=O)N[C@@H](CC(C)C)C(=O)N[C@H](C(=O)N[C@@H](CCSC)C(=O)O)[C@@H](C)O (H-GLQGRLQALLQASGNHAAGILTM-OH)	5.36
CC[C@H](C)[C@H](NC(=O)CNC(=O)[C@H](C)NC(=O)[C@H](C)NC(=O)[C@H](Cc1cnc[nH]1)NC(=O)[C@H](CC(N)=O)NC(=O)CNC(=O)[C@H](CO)NC(=O)[C@H](C)NC(=O)[C@H](CCC(N)=O)NC(=O)[C@H](CC(C)C)NC(=O)[C@H](CC(C)C)NC(=O)[C@@H]1CCCN1C(=O)[C@H](CCC(N)=O)NC(=O)[C@H](CC(C)C)NC(=O)[C@H](CCCNC(=N)N)NC(=O)CNC(=O)[C@H](CCC(N)=O)NC(=O)[C@H](CC(C)C)NC(=O)CN)C(=O)N[C@@H](CC(C)C)C(=O)N[C@H](C(=O)N[C@@H](CCSC)C(N)=O)[C@@H](C)O (H-GLQGRLQPLLQASGNHAAGILTM-NH2)	4.75
CC[C@H](C)[C@H](NC(=O)CNC(=O)[C@H](C)NC(=O)[C@H](C)NC(=O)[C@H](Cc1c[nH]cn1)NC(=O)[C@H](CC(N)=O)NC(=O)CNC(=O)[C@H](C)NC(=O)[C@H](C)NC(=O)[C@H](CCC(N)=O)NC(=O)[C@H](CC(C)C)NC(=O)[C@H](CC(C)C)NC(=O)[C@H](CCCN=C(N)N)NC(=O)[C@H](CCC(N)=O)NC(=O)[C@H](CC(C)C)NC(=O)[C@H](CCCN=C(N)N)NC(=O)CNC(=O)[C@H](CCC(N)=O)NC(=O)[C@H](CC(C)C)NC(=O)CN)C(=O)N[C@@H](CC(C)C)C(=O)N[C@H](C(=O)N[C@@H](CCSC)C(=O)O)[C@@H](C)O (H-GLQGRLQRLLQAAGNHAAGILTM-OH)	5.84
CC[C@H](C)[C@H](NC(=O)CNC(=O)[C@H](C)NC(=O)[C@H](C)NC(=O)[C@H](Cc1c[nH]cn1)NC(=O)[C@H](CC(N)=O)NC(=O)[C@H](C)NC(=O)[C@H](CO)NC(=O)[C@H](C)NC(=O)[C@H](CCC(N)=O)NC(=O)[C@H](CC(C)C)NC(=O)[C@H](CC(C)C)NC(=O)[C@H](CCCN=C(N)N)NC(=O)[C@H](CCC(N)=O)NC(=O)[C@H](CC(C)C)NC(=O)[C@H](CCCN=C(N)N)NC(=O)CNC(=O)[C@H](CCC(N)=O)NC(=O)[C@H](CC(C)C)NC(=O)CN)C(=O)N[C@@H](CC(C)C)C(=O)N[C@H](C(=O)N[C@@H](CCSC)C(=O)O)[C@@H](C)O (H-GLQGRLQRLLQASANHAAGILTM-OH)	5.66
